Results on two substances are retold here after article PMC12024264, “Frog Skin Peptides Hylin-a1, AR-23, and RV-23: Promising Tools Against Carbapenem-Resistant Escherichia coli and Klebsiella pneumoniae Infections” (Antibiotics, 2025).

Where no end group is shown, it is not given here.

In one data set the test system is E. coli 1376. To be noted: carbapenemase NDM (class B), rectal swab, N/D = no antibacterial activity detected; for MIC: microdilution, 37 °C, 20 h. As to the method:
(§1) Each strain was grown in Mueller Hinton Broth (MH Broth), and 5 × 10^5 CFU/mL was used to evaluate antibacterial activity. Clinical carbapenem-resistant K. pneumoniae and E. coli isolates were collected at the AOU of Virology and Microbiology of the University of Campania “Luigi Vanvitelli”.
(§2) The antimicrobial activity of Hylin-a1, AR-23, and RV-23 was investigated using a microdilution assay as reported by the National Committee on Clinical Laboratory Standards (NCCLS) guidelines against a broad spectrum of Gram-negative bacteria. […] In 96-well, the standardized bacterial inoculum (5 × 10^5 colony forming units, CFU/mL) was inoculated together with AMPs and incubated at 37 °C for 20 h. After the time of incubation, optical density (OD) was measured at TECAN, and data were expressed as a percentage of inhibition. In addition to assessing the MIC values, the bactericidal effect was also studied as reported elsewhere.
A general note: Broth dilution looks for growth in wells or tubes with falling amounts of substance.

The next data set relates to E. coli 3140. As to conditions: carbapenemase OXA-48 (class D), urine; microdilution, 37 °C, 20 h; N/D = no antibacterial activity detected. On the procedure: as §1, §2
The subject of the next data set is K. pneumoniae 1711. To be noted: carbapenemase KPC (class A), rectal swab, N/D = no antibacterial activity detected; for MIC: microdilution, 37 °C, 20 h. On the procedure: as §1, §2
In a further data set the test system is K. pneumoniae 311. As to conditions: carbapenemase OXA-48 (class D), rectal swab, N/D = no antibacterial activity detected. As to the method:
as §1, §2

In a further data set the test system is K. pneumoniae ATCC 10031. Description: Time-kill assay. It is filed as cell-based, Klebsiella pneumoniae. As to the method: This in vitro method allows for assessing the kinetics of bacterial killing by peptides over time. […] Specifically, at each time point, 50 μL aliquots of the bacterial–peptide mixtures were collected and plated on agar (see Materials and Methods for further details). Following incubation, colony-forming units (CFUs) were counted and the killing rate of each peptide concentration was calculated (Figure 2).
Figure 2 Evaluation of the kinetic-killing effect of Hylin-a1, AR-23, and RV-23 against K. pneumoniae and E. coli. […] Untreated bacteria was used as control negative (CTR- in black).
Using the same conditions as the MIC assay, a time–kill test was performed to monitor bacterial growth over time. […] Finally, bacterial colonies were counted, and the CFU/mL was calculated.

Another data set can be described thus: Serum stability assay. It counts as in vitro ADME, bovine. As to conditions: 10% FBS. On the procedure:
The susceptibility of Hylin-a1, AR-23, and RV-23 to proteolytic degradation in serum was evaluated, following the protocol reported in Section 4.3.
Figure 6 AMP stability in serum. Stability profiles of Hylin-a1 (red line), AR-23 (gray line), and RV-23 (black line) are reported. All stability tests were performed at least in triplicate. LC-MS analyses were performed using an Agilent 1260 Infinity II LC/MSD system (Milan, Italy). The percentages of intact peptides after different time points of incubation in serum were determined by integrating RP-HPLC peaks from the chromatograms recorded at a wavelength of 210 nm. The test was performed in triplicate, and the data are presented as mean values, with error bars representing standard deviations.
Peptides were mixed with 10% FBS at a final concentration of 0.2 mg/mL and incubated in a water bath at 37 °C. […] Then, the mixture was diluted with 0.1% TFA in H2O (1:1). Samples were characterized using LC-MS on a C18 Aeris Peptide column (100 × 2.1 mm), applying a linear gradient from 5 to 80% solvent B (0.1% TFA in CH3CN) over solvent A (0.1% TFA in water) in 15 min at a flow rate of 0.2 mL/min. All stability tests were performed at least in triplicate. LC-MS analyses were performed using an Agilent 1260 Infinity II LC/MSD system (Milan, Italy).

A further data set has as its system E. coli. As to conditions: against E. coli; ref 63 (Zhang et al.); cited from earlier work. The text has this:
The activity of AR-23 and RV-23 against Gram-negative bacteria has been briefly described in previous studies. Zhang et al. evaluated the antibacterial effects of both peptides against E. coli. […] The authors attributed this enhanced activity to RV-23’s lower hydrophobicity and higher hydrophobic moment, factors strongly associated with reduced cytotoxicity and greater selectivity compared to AR-23. In contrast, the antibacteri ...

Another data set concerns K. pneumoniae. Description: Checkerboard assay with meropenem. As to conditions: checkerboard, 20 h, OD600.

Usually MBC stands for the lowest tested concentration that kills the bacteria rather than only halting them. What is called MIC is the lowest concentration found to suppress growth. By half-life is commonly meant how long it takes for the measured level to halve. What is called amount remaining is the share of the starting amount still present when the sample was taken.

For RIGVLLARLPKLFSLFKLMGKKV-NH2 [RV-23], the MBC in the data set on E. coli 1376 amounted to 6.25 µM; with K. pneumoniae 1711, 12.5 µM; against K. pneumoniae 311, 50 µM. The minimal inhibitory concentration (MIC) with E. coli 1376 is 6.25 µM; in the data set on E. coli 3140 it was 25 µM; against K. pneumoniae 1711, 12.5 µM; with K. pneumoniae 311 (microdilution, 37 °C, 20 h), 50 µM; with E. coli, 3.33 µM. In addition, the “time to significant reduction in bacterial viability / bactericidal effect” value with K. pneumoniae ATCC 10031 was at most 2 h. Further, the “percentage of intact fragments, almost constant up to 24 h” value in “Serum stability assay” (0.2 mg/mL, 37 °C, RP-HPLC peaks at 210 nm, mean of triplicate, after the first 2 h up to 24 h) is recorded as “around 30%”. In “Serum stability assay” (serum, peptide 0.2 mg/mL, 37 °C water bath, ethanol precipitation, LC-MS, RP-HPLC peak integration at 210 nm, at least triplicate), the half-life is below 2 h. Further, the “MIC of peptide in combination with meropenem” value in the data set on K. pneumoniae amounted to 3.125 µM.

With IFGAILPLALGALKNLIK-NH2 [Hylin-a1], the MIC amounted to 25 µM in the data set with E. coli 1376, 50 µM in the data set on E. coli 3140 and 25 µM in the data set with K. pneumoniae 1711. Besides, the MBC with K. pneumoniae 1711 turned out to be 50 µM. Moreover, the “bacterial killing in time-kill assay” value in the data set on K. pneumoniae ATCC 10031 is “kills bacteria”. Further, the fraction remaining at 16 h in “Serum stability assay” (serum, after 16 h, 0.2 mg/mL, 37 °C, RP-HPLC peaks at 210 nm, mean of triplicate, read-out: intact peptide remaining in solution) was 60%.
